This is an account of results in patent publication US11766404B2, “Bioavailable dithiocarbamate-metal complex particles, method of preparation and use thereof” (priority 2018, dated 2023).

Data set [1] has as its system MDA-MB-231 breast cancer tumours subcutaneously xenografted into the SCID mice. Description: Growth of MDA-MB-231 tumours xenografted into SCID mice. Particulars: CuET 1 mg/kg i.p., 5 days ON and 2 days OFF. In kind it is in vivo. On the procedure:
To test directly effect of CuET-albumin nanoparticles we used MDA-MB-231 and AMO1 models. MDA-MB-231 was injected (5*10^6 cells were transplanted s.c.) to grow tumours in SCID mice (Anlab, CZ). Similarly, the AMO-1 xenografts were expanded in SCID mice. Each group consisted of 10 animals, each bearing two tumours. CuET was formulated as nanoparticulate system in mouse serum albumin according to Example 12 or as the neat CuET powder (obtained from TOKYO CHEMICAL […] CO., LTD.) dissolved in olive oil which is a standard formulation for non-polar compounds applied intraperitoneally in the mice experiments to final concentration 1 mg/ml. Olive oil alone and mouse serum albumin solutions were used as the vehicle controls. All solutions were applied intraperitoneally in a schedule 5 days ON and 2 days OFF, the CuET was applied in the final dose 1 mg per kg of body weight. All aspects of the animal studies met the accepted criteria for the care and experimental use of laboratory animals.

The conditions of data set [2]: cited from earlier work.

Take `CCN(CC)C(=S)[S-].CCN(CC)C(=S)[S-].[Cu+2]` [neat CuET powder, bis(diethyldithiocarbamate)copper(II)]: in data set [1], the “effect on tumour growth” value is given as “Only the CuET-albumin nanoparticle shows significant effect”. Moreover, the “solubility constant in water” value in data set [2] is given as “in the range of nanograms per litre”.
